Experimental data reported in US20120035214A1, “RENIN INHIBITORS” (Merck Canada Inc., priority 2009, published 2012).

Assays:
Human recombinant renin = biological target: T1, Human recombinant renin (Homo sapiens, UniProt P00797); assay: Inhibition of human recombinant renin (QFRET, buffer); assay type: biochemical; conditions: buffer: 50 mM MOPS pH 7.4, 100 mM NaCl, 0.002% Tween 20; 37° C., 3 hours
T1 construct: purchased Proteos
T1 sequence (P00797 67-406): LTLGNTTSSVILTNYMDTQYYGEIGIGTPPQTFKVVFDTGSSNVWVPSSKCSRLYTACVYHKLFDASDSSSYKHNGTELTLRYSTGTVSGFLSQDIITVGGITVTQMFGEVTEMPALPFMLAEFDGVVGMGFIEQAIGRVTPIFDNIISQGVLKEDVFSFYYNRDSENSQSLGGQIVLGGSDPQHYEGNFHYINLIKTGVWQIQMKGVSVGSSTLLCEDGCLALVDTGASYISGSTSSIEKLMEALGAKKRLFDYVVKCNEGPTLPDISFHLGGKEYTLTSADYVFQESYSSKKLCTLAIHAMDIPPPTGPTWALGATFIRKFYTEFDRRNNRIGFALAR
Summary of the method: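 Renin at […] final in 50 mM MOPS pH 7.4, 100 mM NaCl, 0.002% Tween 20, with compounds diluted 50-fold from DMSO and 6 μM internally quenched DNP peptide substrate. Incubation 3 h at 37 °C; fluorescence (ex 328/em 388 nm) at 3 h minus t=0 background; IC50 derived.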

[1] = biological target: T2, recombinant renin in human plasma (Homo sapiens, UniProt P00797); assay: Inhibition of renin in human plasma (QFRET, plasma); assay type: biochemical; conditions: human EDTA plasma with 1 nM recombinant renin added; 37° C., 1 hour
T2 construct: purchased Proteos
T2 sequence (P00797 67-406): T1 sequence (P00797 67-406)
Summary of the method: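 Cleared human EDTA plasma spiked with 1 nM recombinant renin. Compounds preincubated with the plasma for 10 min at 37 °C, then 6 µM internally quenched FAM peptide added (final 342 mM Tris pH 7.2, 23 mM EDTA) and incubated for 1 h at 37 °C. Fluorescence (490/520 nm) at 1 h minus t=0 gave IC50.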

Compound	IC50 (Human recombinant renin)	IC50 [1]
Cc1cc(-c2ccccc2COc2cccnc2)ccc1[C@H]1CNCC[C@@H]1c1cc(F)cc(F)c1 (racemic) [Structure 36]	0.55 nM	94 nM
COc1cc(CCNC(C)=O)c(-c2ccc([C@H]3CNCC[C@@H]3c3ccn(C)c(=O)c3)c(Cl)c2)cc1OC (racemic) [Structure 66]	1320 nM	4900 nM
COCCCc1ccccc1-c1ccc([C@H]2CNCC[C@@H]2c2cccnc2)c(C)c1 (racemic) [Structure 2]	18 nM	310 nM
CC(=O)NCCc1ccccc1-c1ccc([C@H]2CNCC[C@@H]2c2cccnc2)c(C)c1 (racemic) [Structure 3]	9.2 nM	41 nM
CC(=O)NCCc1ccccc1-c1ccc([C@H]2CNCC[C@]2(O)c2ccc(F)c(F)c2)c(C)c1 (racemic) [Structure 51]	0.5 nM	5 nM
Cc1cc(-c2ccccc2CCNC(=O)C(C)C)ccc1[C@H]1CNCC[C@@H]1c1cc(F)cc(F)c1 (racemic) [Structure 21]	14 nM	1150 nM
Cc1cc(-c2ccccc2CCCO)ccc1[C@H]1CNCC[C@@H]1c1cccc2nc[nH]c12 (racemic) [Structure 9]	998 nM	> 9500 nM
CC(=O)NCCc1ccccc1-c1ccc([C@H]2CNCC[C@@H]2c2cccnc2)c(Cl)c1 [Structure 13]	1.5 nM	4.1 nM
CC(=O)NCCc1ccccc1-c1ccc([C@@H]2CNCC[C@H]2c2cccnc2)c(Cl)c1 [Structure 14]	2630 nM	> 9500 nM
CC(=O)NCCc1ccccc1-c1onc([C@H]2CNCC[C@]2(O)c2ccc(COCCOC(C)C)cc2)c1Br [Structure 115]	6.5 nM	16 nM
COCCCc1ccccc1-c1ccc([C@H]2CNCC[C@@H]2c2cc(F)cc(F)c2)c(C)c1 (racemic) [Structure 8]	4.3 nM	1180 nM
CC(=O)NCCc1ccccc1-c1onc([C@H]2CN[C@@H](C)C[C@@H]2c2ccc(F)c(F)c2)c1Br [Structure 96]	0.7 nM	2.8 nM
COCC(F)(F)COCc1ccc([C@@]2(O)CCNC[C@@H]2c2ccc(-c3ccccc3CCNC(C)=O)cc2C)nc1 [Structure 123]	1.2 nM	5.6 nM
O=C(CO)NCCc1ccccc1-c1onc([C@H]2CNCC[C@]2(O)c2ccc(F)c(F)c2)c1Br [Structure 88]	0.38 nM	1 nM
O[C@]1(c2ccc(F)c(F)c2)CCNC[C@@H]1c1onc(-c2c(Cl)cccc2Cl)c1Br [Structure 70]	3.7 nM	130 nM
Cc1cc(-c2ccccc2CCNC(=O)c2cnn(C)c2)ccc1[C@H]1CNCC[C@@H]1c1cc(F)cc(F)c1 (racemic) [Structure 24]	73 nM	1010 nM
O[C@]1(c2ccc(F)c(F)c2)CCNC[C@@H]1c1onc(-c2ccccc2Cl)c1Br [Structure 72]	1.1 nM	27 nM
CC(=O)NCCc1ccccc1-c1onc([C@H]2CNCC[C@]2(OCc2c[nH]nn2)c2ccc(F)c(F)c2)c1Br [Structure 90]	0.63 nM	4.4 nM
CC(O)c1c([C@H]2CNCC[C@]2(O)c2ccc(F)c(F)c2)noc1-c1c(Cl)cccc1Cl (stereo partly drawn) [Structure 78]	1.8 nM	24 nM
Cc1cc(-c2ccccc2CCNC(=O)OCc2ccccc2)ccc1[C@H]1CNCC[C@@H]1c1cc(F)cc(F)c1 (racemic) [Structure 25]	18 nM	5470 nM
COCCCc1ccccc1-c1ccc([C@H]2CNCC[C@]2(O)c2cccnc2)c(C)c1 (racemic) [Structure 40]	47 nM	1140 nM
COCCCc1ccccc1-c1ccc([C@H]2CNCC[C@@H]2c2ccn(C)c(=O)c2)c(Cl)c1 (racemic) [Structure 57]	6.4 nM	80 nM
CC(=O)NCCc1ccccc1-c1nnc([C@H]2CN[C@@H](C)C[C@@H]2c2ccc(F)c(F)c2)n1C1CC1 [Structure 94]	1.5 nM	3 nM
Cc1cc(-c2ccccc2CCNC(=O)C(F)(F)C(F)(F)F)ccc1[C@H]1CNCC[C@@H]1c1cc(F)cc(F)c1 (racemic) [Structure 32]	23 nM	75 nM
Cc1cc(-c2ccccc2CCNC(=O)C2CC2)ccc1[C@H]1CNCC[C@@H]1c1cc(F)cc(F)c1 (racemic) [Structure 31]	4.4 nM	130 nM
COCCCc1ccccc1-c1ccc([C@H]2CNCC[C@@H]2c2cccc3nc[nH]c23)c(Cl)c1 (racemic) [Structure 10]	3.5 nM	2060 nM

Now from value to compound:

IC50 (Human recombinant renin)	IC50 [1]	Compound
0.08 nM	0.52 nM	COC[C@H](C)COCc1ccc([C@@]2(O)CCNC[C@@H]2c2ccc(-c3ccccc3CCNC(C)=O)cc2Cl)cc1 [Structure 126]
0.37 nM	1.4 nM	CC(=O)NCCc1ccccc1-c1onc([C@H]2CNCC[C@]2(OCC(O)CO)c2ccc(F)c(F)c2)c1Br (stereo partly drawn) [Structure 117]
0.23 nM	0.6 nM	CC(=O)NCCc1ccccc1-c1onc([C@H]2CNCC[C@]2(O)c2ccc(F)c(F)c2)c1Br [Structure 80]
0.15 nM	3.6 nM	COC[C@H](C)COCc1ccc([C@@]2(O)CCNC[C@@H]2c2cnc(-c3ccccc3CCNC(C)=O)cc2C)cc1 [Structure 119]
0.09 nM	1.2 nM	CC(=O)NCCc1ccccc1-c1onc([C@H]2CNCC[C@@H]2c2ccc(OCCOc3c(Cl)cc(C)cc3Cl)cc2)c1C(C)=O [Structure 110]
0.08 nM	0.32 nM	COCC(F)(F)COCc1ccc([C@@]2(O)CCNC[C@@H]2c2ccc(-c3ccccc3CCNC(C)=O)cc2C)cc1 [Structure 121]
< 0.05 nM	1.2 nM	CC(=O)NCCc1ccccc1-c1onc([C@H]2CNCC[C@@H]2c2ccc(OCCOc3c(Cl)cc(C)cc3Cl)cc2)c1Br [Structure 111]
0.21 nM	7.8 nM	O[C@]1(c2ccc(F)c(F)c2)CCNC[C@@H]1c1onc(-c2cccc(Cl)c2Cl)c1Br [Structure 71]
0.07 nM	2 nM	COCCCC(CNC(C)=O)c1ccccc1-c1onc([C@H]2CNCC[C@@H]2c2ccc(OCCOc3c(Cl)cc(C)cc3Cl)cc2)c1Br (stereo partly drawn) [Structure 108]
0.16 nM	1.2 nM	CO[C@]1(c2ccc(F)c(F)c2)CCNC[C@@H]1c1noc(-c2ccccc2CCNC(C)=O)c1Br [Structure 82]
0.26 nM	1.2 nM	CC(=O)NCCc1ccccc1-c1onc([C@H]2CNCC[C@@H]2c2ccc(F)c(F)c2)c1Br [Structure 107]
0.16 nM	0.62 nM	CC(=O)NCCc1c(F)cccc1-c1onc([C@H]2CNCC[C@]2(O)c2ccc(F)c(F)c2)c1Br [Structure 87]
0.1 nM	6.6 nM	O=C(NCCc1ccccc1-c1ccc([C@H]2CNCC[C@@H]2c2ccc(F)c(F)c2)c(Cl)c1)C(F)(F)F (racemic) [Structure 41]
